Test results from the NIST ThermoML archive (doi:10.1021/je060271a).

Conditions: Liquid, Vibrating tube method

CCCCC(=O)OCC(COC(=O)CCCC)(COC(=O)CCCC)COC(=O)CCCC [pentaerythritol tetrapentanoate]
Conditions | mass density [kg/m3]
303.16 K, 794.63 kPa | 1011.4
303.16 K, 4758.7 kPa | 1013.9
303.16 K, 10737 kPa | 1017.8
303.16 K, 10776 kPa | 1017.7
303.16 K, 19666 kPa | 1023
303.16 K, 25722 kPa | 1026.7
303.16 K, 33332 kPa | 1030.7
303.16 K, 33572 kPa | 1030.8
303.16 K, 34311 kPa | 1031.2
303.16 K, 34317 kPa | 1031.3
303.16 K, 34322 kPa | 1031.4
303.16 K, 34329 kPa | 1031.2
303.16 K, 34349 kPa | 1031.2
323.14 K, 736.7 kPa | 995.1
323.14 K, 775.7 kPa | 995.1
323.14 K, 800.8 kPa | 995.2
323.14 K, 1023.7 kPa | 995.3
323.14 K, 1214.2 kPa | 995.6
323.14 K, 1242.9 kPa | 995.4
323.14 K, 1267.4 kPa | 995.5
323.14 K, 1292.7 kPa | 995.4
323.14 K, 1352.1 kPa | 995.6
323.14 K, 1554.7 kPa | 995.8
323.14 K, 1591.2 kPa | 995.7
323.14 K, 1625.4 kPa | 995.6
323.14 K, 1652.3 kPa | 995.8
323.14 K, 1677.1 kPa | 995.8
323.14 K, 1847.7 kPa | 995.8
323.14 K, 1899.2 kPa | 995.8
323.14 K, 1926.8 kPa | 996
323.14 K, 1959.1 kPa | 996
323.14 K, 1986.5 kPa | 996.1
323.14 K, 2181.7 kPa | 996.1
323.14 K, 2215.2 kPa | 996.1
323.14 K, 2249 kPa | 996.2
323.14 K, 2284.1 kPa | 996.3
323.14 K, 2935.8 kPa | 996.6
323.14 K, 2965.1 kPa | 996.7
323.14 K, 3225.9 kPa | 996.8
323.14 K, 3237 kPa | 996.9
323.14 K, 3248.4 kPa | 996.9
323.14 K, 3385 kPa | 996.9
323.14 K, 7926.5 kPa | 1000.3
323.14 K, 7971.9 kPa | 1000.2
323.14 K, 9459.5 kPa | 1001.1
323.14 K, 9766.4 kPa | 1001.5
323.14 K, 9799.5 kPa | 1001.4
323.14 K, 9832.9 kPa | 1001.5
323.14 K, 9906.9 kPa | 1001.6
323.14 K, 9941.6 kPa | 1001.6
323.14 K, 10052 kPa | 1001.6
323.14 K, 10094 kPa | 1001.7
323.14 K, 10244 kPa | 1001.9
323.14 K, 11507 kPa | 1002.6
323.14 K, 12708 kPa | 1003.4
323.14 K, 13903 kPa | 1004.3
323.14 K, 14014 kPa | 1004.2
323.14 K, 14206 kPa | 1004.4
323.14 K, 14241 kPa | 1004.3
323.14 K, 19359 kPa | 1007.7
323.14 K, 19418 kPa | 1007.7
323.14 K, 19454 kPa | 1007.7
323.14 K, 19485 kPa | 1007.9
323.14 K, 28758 kPa | 1013.5
323.14 K, 28848 kPa | 1013.6
323.14 K, 28889 kPa | 1013.5
323.14 K, 28930 kPa | 1013.6
323.14 K, 29171 kPa | 1013.8
323.14 K, 29205 kPa | 1013.9
323.14 K, 29234 kPa | 1013.8
323.14 K, 29268 kPa | 1014
323.14 K, 29296 kPa | 1013.9
323.15 K, 106.09 kPa | 994.8
323.15 K, 106.1 kPa | 994.7
323.15 K, 106.26 kPa | 994.6
323.15 K, 106.44 kPa | 994.7
323.15 K, 107.13 kPa | 994.6
323.15 K, 108 kPa | 994.6
323.15 K, 108.53 kPa | 994.7
323.15 K, 110.43 kPa | 994.6
323.15 K, 112.87 kPa | 994.7
323.15 K, 115.82 kPa | 994.7
323.15 K, 118.77 kPa | 994.7
323.15 K, 121.05 kPa | 994.6
323.15 K, 124.52 kPa | 994.7
323.15 K, 129.04 kPa | 994.6
323.15 K, 133.91 kPa | 994.8
323.15 K, 140.34 kPa | 994.7
323.15 K, 147.99 kPa | 994.8
323.15 K, 159.99 kPa | 994.7
323.15 K, 173.53 kPa | 994.6
323.15 K, 190.4 kPa | 994.6
323.15 K, 218.21 kPa | 994.8
323.15 K, 249.16 kPa | 994.8
323.15 K, 296.4 kPa | 994.7
323.15 K, 338.3 kPa | 994.8
323.15 K, 358.5 kPa | 994.8
323.15 K, 373.8 kPa | 994.9
323.15 K, 387.5 kPa | 994.7
323.15 K, 401.6 kPa | 994.8
323.15 K, 416.9 kPa | 994.9
323.15 K, 429 kPa | 995
323.15 K, 441.9 kPa | 995
323.15 K, 455.3 kPa | 995
323.15 K, 472.5 kPa | 994.9
323.15 K, 488.1 kPa | 994.9
323.15 K, 504.6 kPa | 995
323.15 K, 525.8 kPa | 995
323.15 K, 543.7 kPa | 995
323.15 K, 564 kPa | 995
323.15 K, 582.3 kPa | 995
323.15 K, 601.7 kPa | 995
323.15 K, 627.6 kPa | 995.1
323.15 K, 645.4 kPa | 995.1
323.15 K, 665.2 kPa | 995.1
323.15 K, 681.1 kPa | 995.1
323.15 K, 697.1 kPa | 995
323.15 K, 718 kPa | 995.2
323.15 K, 755.5 kPa | 995
323.15 K, 823.3 kPa | 995.1
323.15 K, 846.7 kPa | 995.1
323.15 K, 871.2 kPa | 995.4
323.15 K, 903.5 kPa | 995.2
323.15 K, 930.1 kPa | 995.3
323.15 K, 958.1 kPa | 995.3
323.15 K, 984.8 kPa | 995.4
323.15 K, 1006.3 kPa | 995.3
323.15 K, 1041.8 kPa | 995.4
323.15 K, 1060 kPa | 995.3
323.15 K, 1082.2 kPa | 995.4
323.15 K, 1101.7 kPa | 995.3
323.15 K, 1121.7 kPa | 995.4
323.15 K, 1146.9 kPa | 995.5
323.15 K, 1168.2 kPa | 995.4
323.15 K, 1191 kPa | 995.4
323.15 K, 1319.1 kPa | 995.2
323.15 K, 1380.2 kPa | 995.5
323.15 K, 1416.2 kPa | 995.6
323.15 K, 1447.4 kPa | 995.6
323.15 K, 1479.7 kPa | 995.8
323.15 K, 1512.7 kPa | 995.6
323.15 K, 1698.1 kPa | 995.8
323.15 K, 1720.3 kPa | 995.8
323.15 K, 1747.2 kPa | 995.8
323.15 K, 1770.3 kPa | 995.8
323.15 K, 1793.7 kPa | 995.8
323.15 K, 1822.9 kPa | 995.9
323.15 K, 1873.2 kPa | 995.9
323.15 K, 2015.2 kPa | 996.1
323.15 K, 2044.7 kPa | 996.1
323.15 K, 2080.6 kPa | 996
323.15 K, 2111.5 kPa | 996.1
323.15 K, 2143.5 kPa | 996.3
323.15 K, 2327.6 kPa | 996.2
323.15 K, 2364.9 kPa | 996.1
323.15 K, 2402.4 kPa | 996.3
323.15 K, 2448.3 kPa | 996.3
323.15 K, 2487.7 kPa | 996.4
323.15 K, 2528.3 kPa | 996.4
323.15 K, 2578.1 kPa | 996.3
